This test addresses Glucagon-like peptide 1 receptor (Homo sapiens, UniProt P43220). Put plainly: GLP-1 Assay with EX-4 Synthetic Agonist: To assess the effects of test compounds on GLP-1 or glucagon potency and efficacy, a high-throughput calcium mobilization assay was used essentially as previously described (Morris L C, Days E L, Turney M, Mi D, Lindsley C W, Weaver C D, Niswender K D, A Duplexed High-Throughput Screen to Identify Allosteric Modulators of the Glucagon-Like Peptide 1 and Glucagon Receptors. J. Biomol. Screen. 2014 Feb. 13, 19(6):847-858). Briefly, human GLP-1R or Glucagon Receptor 9-3-H cells over-expressing a promiscuous G-protein (Millipore, Billerica, Mass.) were plated at 15,000 cells/well in black-walled 384-well plates (Greiner Bio-one, Monroe, N.C.) in Dulbecco's Modified Eagles Medium (DMEM) with 10% FCS, 4.0 mM L-glutamine, 1× non-essential amino acids (NEAAs), and 10.0 mM HEPES without antibiotics. After overnight attachment, cells were washed twice with assay buffer (HBSS supplemented with 20 mM HEPES and 1.0 mM probenecid) using an EL×405CW cell washer (Bio-Tek, Winooski, Vt.) and then loaded with the calcium sensitive dye fluo-4 AM (Invitrogen, Grand Island, N.Y.) at a final concentration of 2.0 μM in assay buffer. After a 45-minute incubation at room temperature, the dye was removed by washing, leaving 20 μL of assay buffer. […]. A general note: Calcium assays in cells follow changes in intracellular calcium, usually with a dye or a luminescent sensor.

Some results are limits rather than exact numbers.

Sequence of Glucagon-like peptide 1 receptor (P43220 whole entry): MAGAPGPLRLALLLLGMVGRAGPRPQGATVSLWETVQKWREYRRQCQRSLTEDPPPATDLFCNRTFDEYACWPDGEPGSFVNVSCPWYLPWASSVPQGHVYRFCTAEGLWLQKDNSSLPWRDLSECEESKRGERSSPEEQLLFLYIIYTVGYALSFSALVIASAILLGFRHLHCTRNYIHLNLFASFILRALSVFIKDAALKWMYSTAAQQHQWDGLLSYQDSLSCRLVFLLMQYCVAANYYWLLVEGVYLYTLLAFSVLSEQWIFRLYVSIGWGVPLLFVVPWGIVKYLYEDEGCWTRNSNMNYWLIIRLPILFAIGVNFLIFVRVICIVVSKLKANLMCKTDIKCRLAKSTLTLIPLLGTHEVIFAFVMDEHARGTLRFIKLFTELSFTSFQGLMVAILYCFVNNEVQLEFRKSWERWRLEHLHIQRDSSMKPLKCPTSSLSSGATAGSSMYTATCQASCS

What is called EC50 is the midpoint of the concentration-response curve. As to `Cc1c2ccccc2n2c(C(=O)NC[C@H]3CCCN3C(C)C)cn(C3CCCC3)c(=O)c12`, the EC50 is > 30 µM.

These data come from ChEMBL document CHEMBL5727406, “Positive allosteric modulators of the GLP-1 receptor” (2019).
